Results as given in patent US8378104B2 (OSI Pharmaceuticals, LLC, priority 2010, dated 2013).
Counter-ions that a name gives are not always drawn.

What was measured:
TAK1-TAB1 fusion protein = target: T1, TAK1-TAB1 fusion protein (Homo sapiens, UniProt O43318); assay: TAK1 biochemical assay (AlphaScreen, GST-MAP2K7 substrate); details: TAK1-TAB1 fusion protein, GST-MAP2K7 substrate; read-out: mean TAK1 IC50 (Col. A)
T1 construct: purchased Carna
T1 sequence (O43318 with tags, fused parts or gaps limits assumed): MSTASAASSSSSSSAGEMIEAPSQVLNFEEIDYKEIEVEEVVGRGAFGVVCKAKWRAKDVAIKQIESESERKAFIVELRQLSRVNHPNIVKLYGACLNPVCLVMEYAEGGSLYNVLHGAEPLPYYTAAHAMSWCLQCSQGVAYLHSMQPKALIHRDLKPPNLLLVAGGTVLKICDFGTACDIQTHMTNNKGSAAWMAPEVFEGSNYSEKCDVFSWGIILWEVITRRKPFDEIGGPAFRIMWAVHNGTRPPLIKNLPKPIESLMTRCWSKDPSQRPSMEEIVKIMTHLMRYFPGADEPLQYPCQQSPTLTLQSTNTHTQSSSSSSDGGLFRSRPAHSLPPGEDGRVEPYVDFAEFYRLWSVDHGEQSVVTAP

pJNK in HCT-116 cells = assay: Phospho-JNK (Thr183/Tyr185) Meso Scale ELISA assay, TNFα-stimulated HCT-116 cells; assay type: cell-based; details: Homo sapiens, read-out: mean HCT-116 pJNK ELISA IC50 (Col. B)
Method: Detailed below are ELISA assays for pJNK and p38, and a TAK1 biochemical assay. […] In Table 1, Col.
Phospho-JNK (Thr183/Tyr185) Meso Scale ELISA Assay
• 1. Plate HCT-116 cells at 25,000 per well in 100 uL in 96 well clear dishes in normal growth medium. Day 2: • 1. Aspirate medium and replace with 90 μl reduced serum growth medium (1% FCS), incubate for 2 hours at 37° C. • 2. Make drugs at 10× in reduced serum medium and add 10 uL per well. • 3. Incubate at 37° C. for 4 hrs. • 4. Bring capture plates to room temperature. • 5. Block with 150 μl Blocking Solution (provided with kit) (600 mg Blocker A into 20 mL 1× Wash Buffer per plate) at room temperature with shaking. • 6. Wash plates 4× with 200 μl 1× wash buffer (10× provided with kit) before transferring lysates. • 7. Dilute TNFα to […] in reduced serum medium (this makes a 10× working stock). • 8. Add 10 μl TNFα to all wells except negative control wells, final concentration is 10 ng/mL. • 9. Incubate at 37° C. for 10 minutes. • 10. Remove medium by flicking into sink • 11. Wash cells with 100 uL ice cold PBS. • 12. Remove PBS by flicking into sink and patting on paper towels. • 13. Lyse cells in 50 μl ice cold 1× Complete Lysis Buffer plus Phosphatase and Protease inhibitors (all provided with kit) (10 mL Tris Lysis Buffer+200 μl Protease inhibitor solution+100 μl Phosphatase inhibitor I+100 μl Phosphatase inhibitor II). • 14. Incubate with shaking at 4° C. for 30 minutes. • 15. Transfer 45 μl to capture plate, cover with adhesive cover, and incubate at 4° C. over night with shaking. • Day 3: • 1. Wash plates 4× with 200 μl 1× wash buffer (10× provided with kit). • 2. […] Incubate at room temperature with shaking for 1 hour. • 4. Wash 4× with 200 μl 1× Wash Buffer. • 5. […] Read on Sector Imager. Phospho-p38 Meso Scale ELISA Assay Day 1: • 1. Plate HCT-116 cells at 25,000 per well in 100 uL in 96 well clear dishes in normal growth medium. zday 2: • 1. Aspirate medium and replace with 90 μl reduced serum growth medium (1% FCS), incubate for 2 hours at 37° C. • 2. Make drugs at 10× in reduced serum medium and add 10 uL per well. • 3. Incubate at 37° C. for 4 hrs. • 4. Bring capture plates to room temperature. • 5. Block with 150 μl Blocking Solution (provided with kit) (600 mg Blocker A into 20 mL 1× Wash Buffer per plate) at room temperature with shaking. • 6. Wash plates 4× with 200 μl 1× wash buffer (10× provided with kit) before transferring lysates. • 7. Dilute TNFα to […] in reduced serum medium (this makes a 10× working stock). • 8. Add 10 μl TNFα to all wells except negative control wells, final concentration is 10 ng/mL. • 9. Incubate at 37° C. for 10 minutes. • 10. Remove medium by flicking into sink • 11. Wash cells with 100 uL ice cold PBS. • 12. Remove PBS by flicking into sink and patting on paper towels. • 13. Lyse cells in 50 μl ice cold 1× Complete Lysis Buffer plus phosphatase and protease inhibitors (all provided with kit) (10 mL Tris Lysis Buffer+200 μl Protease inhibitor solution+100 μl Phosphatase inhibitor I+100 μl Phosphatase inhibitor II). • 14. Incubate with shaking at 4° C. for 30 minutes. • 15. Dilute lysates before transferring to capture plate with 100 μl Complete p38 Lysate • Dilution Buffer (provided with kit) (10 mL of Diluent 20±200 μl Protease inhibitor solution+100 μl Phosphatase inhibitor I+100 μl Phosphatase inhibitor II). • 16. Transfer 50 μl of diluted lysates to capture plate, cover with adhesive cover, and incubate at 4° C. over night with shaking. Day 3: • 1. Wash plates 4× with 200 μl 1× wash buffer (10× provided with kit). • 2. […] Incubate at room temperature with shaking for 1 hour. • 4. Wash 4× with 200 μl 1× Wash Buffer. • 5. […] Read on Sector Imager. TAK1 Biochemical Assay

**Q.** What does the source list for `Nc1ncc(-c2cnn(C3CCN(C(=O)NCC4CCCCC4)CC3)c2)c2cc(-c3cccc4cnsc34)oc12` [Example 341, 4-[4-(7-amino-2-benzo[d]isothiazol-7-yl-furo[2,3-c]pyridin-4-yl)-pyrazol-1-yl]-piperidine-1-carboxylic acid cyclohexylmethyl-amide]?
**A.** IC50 (TAK1-TAB1 fusion protein): 100 to 1000 nM; IC50 (pJNK in HCT-116 cells): < 100 nM

**Q.** What does the source list for `CNc1nc2cccc(-c3cc4c(-c5cnn([C@H]6CC[C@H](O)CC6)c5)cnc(N)c4o3)c2s1` [Example 351, trans-4-(4-{7-amino-2-[2-(methylamino)-1,3-benzothiazol-7-yl]furo[2,3-c]pyridin-4-yl}-1H-pyrazol-1-yl)cyclohexanol Trifluoroacetate (Salt)]?
**A.** IC50 (TAK1-TAB1 fusion protein): < 100 nM; IC50 (pJNK in HCT-116 cells): < 100 nM

**Q.** For `Nc1ncc(-c2cnn([C@H]3CC[C@H](O)CC3)c2)c2c(Cl)c(-c3cccc4cnsc34)oc12` [Example 285, trans-4-{4-[7-amino-2-(1,2-benzothiazol-7-yl)-3-chlorofuro[2,3-c]pyridin-4-yl]-1H-pyrazol-1-yl}cyclohexanol trifluoroacetic Acid Salt], which IC50 (TAK1-TAB1 fusion protein) is on record?
**A.** 100 to 1000 nM

**Q.** And the IC50 (pJNK in HCT-116 cells)?
**A.** 100 to 1000 nM

**Q.** Which IC50 (TAK1-TAB1 fusion protein) does the source give for `N#Cc1cc(-c2cc3c(-c4cnn([C@H]5CC[C@H](O)CC5)c4)cnc(N)c3o2)c2snnc2c1` [Example 370, 7-{7-amino-4-[1-(trans-4-hydroxycyclohexyl)-1H-pyrazol-4-yl]furo[2,3-c]pyridin-2-yl}-1,2,3-benzothiadiazole-5-carbonitrile] here?
**A.** 100 to 1000 nM

**Q.** And the IC50 (pJNK in HCT-116 cells)?
**A.** < 100 nM

**Q.** `Nc1ncc(-c2cnn([C@H]3CC[C@H](O)CC3)c2)c2cc(-c3ccccc3)oc12` [Example 368, trans-4-[4-(7-amino-2-phenylfuro[2,3-c]pyridin-4-yl)-1H-pyrazol-1-yl]cyclohexanol] was tested. Which IC50 (TAK1-TAB1 fusion protein) did it give?
**A.** 100 to 1000 nM

**Q.** And the IC50 (pJNK in HCT-116 cells)?
**A.** 100 to 1000 nM

**Q.** Which IC50 (TAK1-TAB1 fusion protein) does the source give for `Nc1ncc(-c2cnn([C@H]3CC[C@H](O)CC3)c2)c2cc(-c3cccn4cncc34)oc12` [Example 365, trans-4-{4-[7-amino-2-(imidazo[1,5-a]pyridin-8-yl)furo[2,3-c]pyridin-4-yl]-1H-pyrazol-1-yl}cyclohexanol.diformate] here?
**A.** < 100 nM

**Q.** What about the IC50 (pJNK in HCT-116 cells) of the same molecule?
**A.** < 100 nM

**Q.** What does the source list for `CC(=O)N1CCC(n2cc(-c3cnc(N)c4oc(-c5cc(F)cc6cnsc56)cc34)cn2)CC1` [Example 237, 1-(4-{4-[7-amino-2-(5-fluoro-1,2-benzothiazol-7-yl)furo[2,3-c]pyridin-4-yl]-1H-pyrazol-1-yl}piperidin-1-yl)ethanone diformate salt]?
**A.** IC50 (TAK1-TAB1 fusion protein): < 100 nM; IC50 (pJNK in HCT-116 cells): < 100 nM

**Q.** What does the source list for `Nc1ncc(-c2cnn(C3CCN(C(=O)C4CC4)CC3)c2)c2cc(-c3csc4cnccc34)oc12` [Example 228, (4-{4-[7-amino-2-(thieno[2,3-c]pyridin-3-yl)furo[2,3-c]pyridin-4-yl]-1H-pyrazol-1-yl}piperidin-1-yl)(cyclopropyl)methanone diformate salt]?
**A.** IC50 (TAK1-TAB1 fusion protein): < 100 nM; IC50 (pJNK in HCT-116 cells): < 100 nM

**Q.** Which results are given for `CNc1ncc(-c2cnn([C@H]3CC[C@H](O)CC3)c2)c2cc(-c3cccc4nnsc34)oc12` [Example 284, trans-4-{4-{2-[2-(1,2,3-benzothiadiazol-7-yl)-7-(methylamino)furo[2,3-c]pyridin-4-yl]-1H-pyrazol-1-yl}cyclohexanol formate salt]?
**A.** IC50 (TAK1-TAB1 fusion protein): < 100 nM; IC50 (pJNK in HCT-116 cells): < 100 nM

**Q.** What does the source list for `CC(=O)N1CCC(n2cc(-c3cnc(N)c4oc(-c5cccc6cnncc56)cc34)cn2)CC1` [Example 367, 1-(4-{4-[7-amino-2-(phthalazin-5-yl)furo[2,3-c]pyridin-4-yl]-1H-pyrazol-1-yl}piperidin-1-yl)ethanone]?
**A.** IC50 (TAK1-TAB1 fusion protein): 100 to 1000 nM; IC50 (pJNK in HCT-116 cells): 100 to 1000 nM

**Q.** What does the source list for `CC(=O)N1CCC(n2cc(-c3cnc(N)c4oc(-c5nn(C)c6cnccc56)cc34)cn2)CC1` [Example 363, 1-(4-{4-[7-amino-2-(1-methyl-1H-pyrazolo[3,4-c]pyridin-3-yl)furo[2,3-c]pyridin-4-yl]-1H-pyrazol-1-yl}piperidin-1-yl)ethanone trifluoroacetic acid salt]?
**A.** IC50 (TAK1-TAB1 fusion protein): < 100 nM; IC50 (pJNK in HCT-116 cells): 100 to 1000 nM

**Q.** What does the source list for `Nc1ncc(-c2ccoc2)c2cc(-c3csc4cnccc34)oc12` [Example 392, 4-(furan-3-yl)-2-(thieno[2,3-c]pyridin-3-yl)furo[2,3-c]pyridin-7-amine trifluoroacetate]?
**A.** IC50 (TAK1-TAB1 fusion protein): 100 to 1000 nM; IC50 (pJNK in HCT-116 cells): 1000 to 10000 nM

**Q.** Which results are given for `Nc1ncc(-c2cnn([C@H]3CC[C@H](O)CC3)c2)c2c(Cl)c(-c3csc4cnccc34)oc12` [Example 287, trans-4-{4-[7-amino-3-chloro-2-(thieno[2,3-c]pyridin-3-yl)furo[2,3-c]pyridin-4-yl]-1H-pyrazol-1-yl}cyclohexanol]?
**A.** IC50 (TAK1-TAB1 fusion protein): 100 to 1000 nM; IC50 (pJNK in HCT-116 cells): < 100 nM

**Q.** `CNc1ncc(-c2cnn([C@H]3CC[C@H](O)CC3)c2)c2cc(-c3cccc4cnsc34)oc12` [Example 282, trans-4-{4-[2-(1,2-benzothiazol-7-yl)-7-(methylamino)furo[2,3-c]pyridin-4-yl]-1H-pyrazol-1-yl}cyclohexanol] was tested. Which IC50 (TAK1-TAB1 fusion protein) did it give?
**A.** 100 to 1000 nM

**Q.** And the IC50 (pJNK in HCT-116 cells)?
**A.** 100 to 1000 nM

**Q.** What does the source list for `Nc1ncc(-c2cnn([C@@H]3C[C@H]4CC[C@@H](C3)N4)c2)c2cc(-c3csc4cnccc34)oc12` [Example 320, 4-{1-[(3-exo)-8-azabicyclo[3.2.1]oct-3-yl]-1H-pyrazol-4-yl}-2-(thieno[2,3-c]pyridin-3-yl)furo[2,3-c]pyridin-7-amine]?
**A.** IC50 (TAK1-TAB1 fusion protein): < 100 nM; IC50 (pJNK in HCT-116 cells): 100 to 1000 nM

**Q.** Which results are given for `CC(=O)N1CCC(n2cc(-c3cnc(N)c4oc(-c5c(C#N)sc6cnccc56)cc34)cn2)CC1` [Example 264, 3-{4-[1-(1-acetylpiperidin-4-yl)-1H-pyrazol-4-yl]-7-aminofuro[2,3-c]pyridin-2-yl}thieno[2,3-c]pyridine-2-carbonitrile Trifluoroacetate]?
**A.** IC50 (TAK1-TAB1 fusion protein): 100 to 1000 nM; IC50 (pJNK in HCT-116 cells): < 100 nM

**Q.** For `COCc1nc2cccc(-c3cc4c(-c5cnn(C6CCN(C(C)=O)CC6)c5)cnc(N)c4o3)c2s1` [Example 348, 1-[4-(4-{7-amino-2-[2-(methoxymethyl)-1,3-benzothiazol-7-yl]furo[2,3-c]pyridin-4-yl}-1H-pyrazol-1-yl)piperidin-1-yl]ethanone trifluoroacetate], which IC50 (TAK1-TAB1 fusion protein) is on record?
**A.** < 100 nM

**Q.** What about the IC50 (pJNK in HCT-116 cells) of the same molecule?
**A.** < 100 nM

**Q.** Which results are given for `CC(C)(C)OC(=O)N1[C@@H]2CC[C@H]1C[C@H](n1cc(-c3cnc(N)c4oc(-c5cccc6cnsc56)cc34)cn1)C2` [Example 301, tert-butyl (3-exo)-3-{4-[7-amino-2-(1,2-benzisothiazol-7-yl)furo[2,3-c]pyridin-4-yl]-1H-pyrazol-1-yl}-8-azabicyclo[3.2.1]octane-8-carboxylate]?
**A.** IC50 (TAK1-TAB1 fusion protein): 100 to 1000 nM; IC50 (pJNK in HCT-116 cells): 100 to 1000 nM
